Experimental data published in the supplement of paper PMC8253809.

Legend:
HGGX42 [1] = H3.3 G34R paediatric high-grade glioma line; experiment: EC50 (inflection of fitted growth-inhibition curve) (log10 M)
Procedure, shortened: (§1)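 Patient-derived pHGG/DIPG cell lines and astrocyte controls were plated in 384-well plates coated with 1% Geltrex and dosed by pin tool with a 10-point threefold dilution series (mean top concentration 35 μM), in triplicate. Cells were exposed for 7 days (3 days for iAstro) at 37 °C and 5% CO2. CellTiter-Glo luminescence was log2-transformed, normalised per plate to % activity between negative (solvent) and positive control wells, and pooled. EC50 and maximal response (yFin) were taken from whichever three- or four-parameter log-logistic fit had the lowest AICc.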

DIPGX9 [2] = diffuse intrinsic pontine glioma line; experiment: as above
Procedure, shortened: as §1

SUDIPGXVII [3] = diffuse intrinsic pontine glioma line; experiment: as above
Procedure, shortened: as §1

SUDIPGIV [4] = diffuse intrinsic pontine glioma line; experiment: as above
Procedure, shortened: as §1

SUDIPGXIII [5] = diffuse intrinsic pontine glioma line; experiment: as above
Procedure, shortened: as §1

SUDIPGVI [6] = diffuse intrinsic pontine glioma line; experiment: as above
Procedure, shortened: as §1

HGGX2 [7] = paediatric high-grade glioma line; experiment: as above
Procedure, shortened: as §1

HGGX6 [8] = H3.3 G34R paediatric high-grade glioma line; experiment: as above
Procedure, shortened: as §1

HGGX39 [9] = paediatric high-grade glioma line; experiment: as above
Procedure, shortened: as §1

DIPGX7 [10] = H3.3 K27M diffuse intrinsic pontine glioma line; experiment: as above
Procedure, shortened: as §1

HABS [11] = astrocyte control; experiment: as above
Procedure, shortened: as §1

DIPGX37 [12] = H3.3 K27M diffuse intrinsic pontine glioma line; experiment: as above
Procedure, shortened: as §1

SUDIPGXIX [13] = diffuse intrinsic pontine glioma line; experiment: as above
Procedure, shortened: as §1

HGGX42 [14] = experiment: maximal growth inhibition (yFin) relative to DMSO / staurosporine; higher = more efficacious
Procedure, shortened: as §1

DIPGX9 [15] = experiment: as above
Procedure, shortened: as §1

SUDIPGXVII [16] = experiment: as above
Procedure, shortened: as §1

SUDIPGIV [17] = experiment: as above
Procedure, shortened: as §1

SUDIPGXIII [18] = experiment: as above
Procedure, shortened: as §1

SUDIPGVI [19] = experiment: as above
Procedure, shortened: as §1

HGGX2 [20] = experiment: as above
Procedure, shortened: as §1

HGGX6 [21] = experiment: as above
Procedure, shortened: as §1

HGGX39 [22] = experiment: as above
Procedure, shortened: as §1

DIPGX7 [23] = experiment: as above
Procedure, shortened: as §1

HABS [24] = experiment: as above
Procedure, shortened: as §1

DIPGX37 [25] = experiment: as above
Procedure, shortened: as §1

SUDIPGXIX [26] = experiment: as above
Procedure, shortened: as §1

HGGX42 [27] = experiment: area under dose-response curve of % growth inhibition (log2 RLU vs DMSO / staurosporine), 1e-11 to 1e-4 M (% x log10 M); higher = more growth inhibition
Procedure, shortened: (§2)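 Patient-derived pHGG/DIPG cell lines and astrocyte controls were grown on 1% Geltrex-coated 384-well plates and exposed to a 10-point threefold dilution series (mean top concentration 35 μM), in triplicate. Exposure was 7 days (iAstro 3 days) at 37 °C, 5% CO2. CellTiter-Glo luminescence was log2-transformed and normalised per plate to % activity between solvent and positive controls. Area under the curve was taken by trapezoid rule from the fitted log-logistic curve, or from a smoothing spline when the sigmoid fit failed.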

DIPGX9 [28] = experiment: as above
Procedure, shortened: as §2

SUDIPGXVII [29] = experiment: as above
Procedure, shortened: as §2

iAstro = astrocyte control; experiment: as above
Procedure, shortened: as §2

SUDIPGIV [30] = experiment: as above
Procedure, shortened: as §2

DIPGX29 = H3.3 K27M diffuse intrinsic pontine glioma line; experiment: as above
Procedure, shortened: as §2

SUDIPGXXI = diffuse intrinsic pontine glioma line; experiment: as above
Procedure, shortened: as §2

SUDIPGXIII [31] = experiment: as above
Procedure, shortened: as §2

SUDIPGVI [32] = experiment: as above
Procedure, shortened: as §2

HGGX2 [33] = experiment: as above
Procedure, shortened: as §2

HGGX6 [34] = experiment: as above
Procedure, shortened: as §2

HGGX39 [35] = experiment: as above
Procedure, shortened: as §2

DIPGX7 [36] = experiment: as above
Procedure, shortened: as §2

HABS [37] = experiment: as above
Procedure, shortened: as §2

DIPGX37 [38] = experiment: as above
Procedure, shortened: as §2

SUDIPGXIX [39] = experiment: as above
Procedure, shortened: as §2

SMILES: N#CN=C(NCCCCCCOc1ccc(Cl)cc1)Nc1ccncc1 [GMX-1778]
- EC50 (log10 M) (HGGX42 [1]): -7.48
- EC50 (log10 M) (DIPGX9 [2]): -8.21
- EC50 (log10 M) (SUDIPGXVII [3]): -7.44
- EC50 (log10 M) (SUDIPGIV [4]): -7.21
- EC50 (log10 M) (SUDIPGXIII [5]): -7.54
- EC50 (log10 M) (SUDIPGVI [6]): -7.79
- EC50 (log10 M) (HGGX2 [7]): -8.25
- EC50 (log10 M) (HGGX6 [8]): -7.85
- EC50 (log10 M) (HGGX39 [9]): -7.85
- EC50 (log10 M) (DIPGX7 [10]): -7.31
- EC50 (log10 M) (HABS [11]): -7.62
- EC50 (log10 M) (DIPGX37 [12]): -8.03
- EC50 (log10 M) (SUDIPGXIX [13]): -7.5
- maximal growth inhibition (HGGX42 [14]): 90.6%
- maximal growth inhibition (DIPGX9 [15]): 63.3%
- maximal growth inhibition (SUDIPGXVII [16]): 71.3%
- maximal growth inhibition (SUDIPGIV [17]): 104%
- maximal growth inhibition (SUDIPGXIII [18]): 94.5%
- maximal growth inhibition (SUDIPGVI [19]): 93.6%
- maximal growth inhibition (HGGX2 [20]): 103%
- maximal growth inhibition (HGGX6 [21]): 74.7%
- maximal growth inhibition (HGGX39 [22]): 74.6%
- maximal growth inhibition (DIPGX7 [23]): 114%
- maximal growth inhibition (HABS [24]): 76%
- maximal growth inhibition (DIPGX37 [25]): 77.2%
- maximal growth inhibition (SUDIPGXIX [26]): 127%
- area under dose-response curve (HGGX42 [27]): 315
- area under dose-response curve (DIPGX9 [28]): 267
- area under dose-response curve (SUDIPGXVII [29]): 245
- area under dose-response curve (iAstro): 314
- area under dose-response curve (SUDIPGIV [30]): 333
- area under dose-response curve (DIPGX29): 465
- area under dose-response curve (SUDIPGXXI): 587
- area under dose-response curve (SUDIPGXIII [31]): 335
- area under dose-response curve (SUDIPGVI [32]): 354
- area under dose-response curve (HGGX2 [33]): 426
- area under dose-response curve (HGGX6 [34]): 288
- area under dose-response curve (HGGX39 [35]): 287
- area under dose-response curve (DIPGX7 [36]): 380
- area under dose-response curve (HABS [37]): 275
- area under dose-response curve (DIPGX37 [38]): 311
- area under dose-response curve (SUDIPGXIX [39]): 444
